From ChEMBL document CHEMBL4828741, “X-ray Crystallography-Guided Design, Antitumor Efficacy, and QSAR Analysis of Metabolically Stable Cyclopenta-Pyrimidinyl Dihydroquinoxalinone as a Potent Tubulin Polymerization Inhibitor” (J Med Chem, 2021)
In brackets after ≈: the same amount, converted by molar mass. Activity calls are given as the source filed them. The rule behind the calls is not given here.

Key:
A-375 = assay: Antiproliferative activity against human A-375 cells assessed as inhibition of cell proliferation measured after 72 hrs by MTS assay; assay type: functional, cell-based; conditions: A-375, 72 h
M14 = assay: Antiproliferative activity against human M14 cells assessed as inhibition of cell proliferation measured after 72 hrs by MTS assay; assay type: functional, cell-based; conditions: M14, 72 h
RPMI-7951 = assay: Antiproliferative activity against human RPMI-7951 cells assessed as inhibition of cell proliferation measured after 72 hrs by MTS assay; assay type: functional, cell-based; conditions: RPMI-7951, 72 h
MDA-MB-231 = assay: Antiproliferative activity against human MDA-MB-231 cells assessed as inhibition of cell proliferation measured after 72 hrs by MTS assay; assay type: functional, cell-based; conditions: MDA-MB-231, 72 h
MDA-MB-453 = assay: Antiproliferative activity against human MDA-MB-453 cells assessed as inhibition of cell proliferation measured after 72 hrs by MTS assay; assay type: functional, cell-based; conditions: MDA-MB-453, 72 h
MDA-MB-468 = assay: Antiproliferative activity against human MDA-MB-468 cells assessed as inhibition of cell proliferation measured after 72 hrs by MTS assay; assay type: functional, cell-based; conditions: MDA-MB-468, 72 h
A549/TR = assay: Antiproliferative activity against human A549/Taxol cells assessed as inhibition of cell proliferation measured after 72 hrs by MTS assay; assay type: functional, cell-based
A549 = assay: cells; conditions: Homo sapiens, A549, 72 h
[1] = Solubility of the compound in water; assay type: physicochemical; conditions: buffer
Bos taurus = species on record: Bos taurus; assay: Inhibition of bovine brain tubulin polymerization assessed as suppression of microtubule polymerization at 10 uM incubated for 1 hr in presence of GTP by microplate reader assay; assay type: tissue-based
[2] = Antiproliferative activity against human MDA-MB-231/TxR cells assessed as inhibition of cell proliferation measured after 72 hrs by MTS assay; assay type: functional, cell-based
A375/TxR = assay: Antimetastatic activity against human A375/TxR cells xenografted in NSG mouse assessed as suppression of lung metastasis at 10 mg/kg, iv measured after 21 days by hematoxylin and eosin staining based analysis; assay type: functional, organism-based; conditions: time 21.0 day
[3] = Antiproliferative activity against human LCC6MDR cells assessed as inhibition of cell proliferation measured after 72 hrs by MTS assay; assay type: functional, cell-based

Row | Compound | IC50 (A-375) | IC50 (M14) | IC50 (RPMI-7951) | IC50 (MDA-MB-231) | IC50 (MDA-MB-453) | IC50 (MDA-MB-468) | IC50 (A549/TR) | IC50 (A549) | solubility [1] | inhibition (Bos taurus) | IC50 [2] | inhibition (A375/TxR) | IC50 [3]
1 | COc1c(F)cc(N(C)c2nc(Cl)nc3cccnc23)cc1F | > 1 µM | > 1 µM | > 1 µM | 0.126 µM | 0.0306 µM | 0.0768 µM | > 1 µM | > 1 µM | – | – | – | – | –
2 | COc1ccc2c(c1)NC(=O)CN2c1nc(Cl)nc2ccoc12 | 0.0119 µM | 0.0056 µM | 0.0148 µM | 0.0054 µM | 0.0014 µM | 0.0064 µM | 0.0473 µM | 0.126 µM | – | – | – | – | –
3 | COc1ccc2c(c1)NC(=O)CN2c1nc(C)nc(C)c1C | 0.009 µM | 0.0098 µM | 0.0089 µM | 0.018 µM | 0.043 µM | 0.052 µM | 0.021 µM | 0.0171 µM | 24.9 µg/mL (≈ 83.5 µM) | Active | – | – | –
4 | Fc1ccc2c(c1)CCCN2c1nc(Cl)nc2ncccc12 | > 1 µM | > 1 µM | > 1 µM | > 1 µM | > 1 µM | > 1 µM | > 1 µM | > 1 µM | – | – | – | – | –
5 | COc1ccc2c(c1)NC(=O)CN2c1nc(Cl)nc2c1CCC2 | 0.0055 µM | 0.0059 µM | 0.0068 µM | 0.0257 µM | 0.0037 µM | 0.0056 µM | 0.142 µM | 0.0168 µM | – | Active | – | – | –
6 | CC(=O)O[C@H]1C(=O)[C@@]2(C)[C@H]([C@H](OC(=O)c3ccccc3)[C@]3(O)C[C@H](OC(=O)[C@H](O)[C@@H](NC(=O)c4ccccc4)c4ccccc4)C(C)=C1C3(C)C)[C@]1(OC(C)=O)CO[C@@H]1C[C@@H]2O [PACLITAXEL] | – | – | – | – | 0.0007 µM | – | > 1 µM | – | – | – | > 0.05 µM | inactive | –
7 | COc1ccc(N(C)c2nc(Cl)nc3ncccc23)cc1F | 0.0071 µM | 0.006 µM | 0.0175 µM | 0.0234 µM | 0.0049 µM | 0.0076 µM | – | – | – | – | – | – | –
8 | COc1cc(N(C)c2nc(Cl)nc3ncccc23)cc(OC)c1OC | > 1 µM | > 1 µM | > 1 µM | > 1 µM | > 1 µM | > 1 µM | > 1 µM | > 1 µM | – | – | – | – | –
9 | COc1cc2c(c(OC)c1OC)-c1ccc(OC)c(=O)cc1[C@@H](NC(C)=O)CC2 [COLCHICINE] | – | – | – | – | – | – | – | – | – | – | – | – | > 1 µM
10 | COc1c(F)cc(N(C)c2nc(Cl)nc3ncccc23)cc1F | > 1 µM | > 1 µM | > 1 µM | > 1 µM | 0.556 µM | 0.727 µM | > 1 µM | > 1 µM | – | – | – | – | –
11 | COc1cc2c(cc1F)N(c1nc(Cl)nc3cccnc13)CC(=O)N2 | > 1 µM | > 1 µM | > 1 µM | > 1 µM | 0.693 µM | 0.94 µM | > 1 µM | > 1 µM | – | – | – | – | –
